Laboratory results taken from patent US12522855B2, “Methods and kits for identifying thrombus origin and optimizing post-ischemic event treatment” (TEL HASHOMER MEDICAL RESEARCH INFRASTRUCTURE AND SERVICES …, priority 2019, dated 2026).

Molecular target: thrombin (Homo sapiens, UniProt P00734)
Conditions: 1 μM final concentration, added to selected reaction wells; 15 clots from randomized sources
Description: Thrombin activity was measured as previously described by Beilin et al., (2001, Neuroreport: doi:10.1097/00001756-200108080-00013) in 10 L triplicates of clot-free buffer in a black Nunc 96 wells microplate by a fluorometric assay quantifying the cleavage of the synthetic peptide thrombin substrate Boc-Asp(OBzl)-Pro-Arg-AMC (I-1560, Bachem, Switzerland, 13 μM final concentration). Measurements were performed by the Infinite 2000 microplate reader (Tecan, infinite 200, Switzerland) with excitation and emission filters of 360±35 and 460±35 nm, respectively. For calibration, known concentrations of bovine thrombin (Sigma-Aldrich, Israel) were used in the same assay.

**Q.** How did the “effect on thrombin activity profile (specificity check of the fluorescent signal)” value turn out when NAPAP was run?
**A.** high and consistent abolition of thrombin activity profile
